Measured values taken from patent publication US20250263423A1, “INHIBITORS OF RAS ONCOPROTEINS” (BridGene Biosciences, Inc., priority 2021, published 2025).

Target: Kras G12D (Homo sapiens (Human), UniProt P01116, G12D)
Experiment: HTRF-based nucleotide exchange assay detecting GTP binding to K-Ras
Assay type: biochemical
Conditions: SOS1 (aa 564-1049), fluorescently labelled GTP, compound incubated 1 h at RT
Protocol: Kras G12D was mixed with a-GST Tb antibody (1.5× solution) and 10 uL was delivered to reaction wells. A mixture of Kras G12D/aGST-Tb Ab/compound mixture was incubated for 1 h at RT. A 3× solution of SOS1 (aa 564-1049) and fluorescently labelled GTP* was prepared in reaction buffer and 5 μL of SOS1/GTP* solution was added to reaction well to initiate the exchange reaction. An IC50 was determined using a sigmoidal dose response (variable slope) equation. Note: Assay IC50 data are designated within the following ranges: A: ≤10 nM, B: >10 nM to ≤1000 nM, C: >1000 nM

Kras G12D, sequence (P01116-2 other isoform, or with tags, fused parts or gaps G12D): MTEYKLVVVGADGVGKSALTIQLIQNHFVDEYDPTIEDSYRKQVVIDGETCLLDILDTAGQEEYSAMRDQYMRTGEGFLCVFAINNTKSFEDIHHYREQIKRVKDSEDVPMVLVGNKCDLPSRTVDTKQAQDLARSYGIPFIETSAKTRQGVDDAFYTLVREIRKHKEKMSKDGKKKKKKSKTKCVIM

## C[C@H]1CN(c2nc(OCC34CCCN3CCC4)nc3c(F)c(-c4cccc5cccc(Cl)c45)ncc23)C[C@H](C)N1 [Example 2, 7-(8-chloronaphthalen-1-yl)-4-((3S,5S)-3,5-dimethylpiperazin-1-yl)-8-fluoro-2-((tetrahydro-1H-pyrrolizin-7a(5H)-yl)methoxy)pyrido[4,3-d]pyrimidine]
  IC50: 0.01 to 1 µM

## C[C@@H]1CN(c2nc(OCC34CCCN3CCC4)nc3c(F)c(-c4cccc5cccc(Cl)c45)ncc23)C[C@H](C)N1 [Example 1, 7-(8-chloronaphthalen-1-yl)-4-((3R,5S)-3,5-dimethylpiperazin-1-yl)-8-fluoro-2-((tetrahydro-1H-pyrrolizin-7a(5H)-yl)methoxy)pyrido[4,3-d]pyrimidine]
  IC50: > 1 µM

## C#Cc1cccc2cc(O)cc(-c3ncc4c(N5C[C@@H]6C[C@H]5CN6)nc(OCC56CCCN5CCC6)nc4c3F)c12 (stereo in doubt) [Example 6, 4-(4-((1S,4S)-2,5-diazabicyclo[2.2.1]heptan-2-yl)-8-fluoro-2-((tetrahydro-1H-pyrrolizin-7a(5H)-yl)methoxy)pyrido[4,3-d]pyrimidin-7-yl)-5-ethynylnaphthalen-2-ol]
  IC50: ≤ 0.01 µM

## C#Cc1cccc2cc(O)cc(-c3ncc4c(N5CC6CCCC(C5)N6)nc(OCC56CCCN5CCC6)nc4c3F)c12 [Example 7, 4-(4-(3,9-diazabicyclo[3.3.1]nonan-3-yl)-8-fluoro-2-((tetrahydro-1H-pyrrolizin-7a(5H)-yl)methoxy)pyrido[4,3-d]pyrimidin-7-yl)-5-ethynylnaphthalen-2-ol]
  IC50: ≤ 0.01 µM

## C#Cc1cccc2cc(O)cc(-c3ncc4c(N5CC6COCC(C5)N6)nc(OCC56CCCN5CCC6)nc4c3F)c12 [Example 4, 4-(4-(3-oxa-7,9-diazabicyclo[3.3.1]nonan-7-yl)-8-fluoro-2-((tetrahydro-1H-pyrrolizin-7a(5H)-yl)methoxy)pyrido[4,3-d]pyrimidin-7-yl)-5-ethynylnaphthalen-2-ol]
  IC50: ≤ 0.01 µM

## Fc1c(-c2cccc3cccc(Cl)c23)ncc2c(N3C[C@H]4CC[C@@H](C3)N4)nc(OCC34CCCN3CCC4)nc12 [Example 3, 4-((1R,5S)-3,8-diazabicyclo[3.2.1]octan-3-yl)-7-(8-chloronaphthalen-1-yl)-8-fluoro-2-((tetrahydro-1H-pyrrolizin-7a(5H)-yl)methoxy)pyrido[4,3-d]pyrimidine]
  IC50: ≤ 0.01 µM

## C#Cc1cccc2cc(O)cc(-c3ncc4c(N5CC6CC(C5)N6)nc(OCC56CCCN5CCC6)nc4c3F)c12 [Example 8, 4-[4-(3,6-diazabicyclo[3.1.1]heptan-3-yl)-8-fluoro-2-(1,2,3,5,6,7-hexahydropyrrolizin-8-ylmethoxy)pyrido[4,3-d]pyrimidin-7-yl]-5-ethynyl-naphthalen-2-ol]
  IC50: ≤ 0.01 µM

## Fc1c(-c2cccc3cccc(Cl)c23)ncc2c(N3CC4CNCC4C3)nc(OCC34CCCN3CCC4)nc12 [Example 5, 4-[(3aR, 6aS)-2,3,3a,4,6,6a-hexahydro-1H-pyrrolo[3,4-c]pyrrol-5-yl]-7-(8-chloro-1-naphthyl)-8-fluoro-2-(1,2,3,5,6,7-hexahydropyrrolizin-8-ylmethoxy)pyrido[4,3-d]pyrimidine]
  IC50: > 1 µM
